Article PMC7835927, “Natural Polyhydroxy Flavonoids, Curcuminoids, and Synthetic Curcumin Analogs as α7 nAChRs Positive Allosteric Modulators” (International Journal of Molecular Sciences, 2021)
Read-outs that look alike come from different tables or passages of the source. Each block holds one compound with its values, some of them ahead of it.

Tests used:
[1] = target: T1, human α7 nAChRs (Homo sapiens, UniProt P36544); assay: Two-electrode voltage-clamp in Xenopus oocytes expressing human α7 nAChRs: potentiation of ACh-evoked currents; type: cell-based; settings: for nH of ACh concentration-response curve / Imax of ACh concentration-response curve / maximal potentiating effect: Hill fit; for activity at 10 µM: read-out: % ± s.e. Current vs. ACh [200 µM]; for % ± s.e. Current vs. ACh [200 µM]: Table 1; for % ± s.e. Current vs. ACh [200 µM] / % ± s.e. Current Vs. ACh [200 µM]: compound 10 µM co-applied with 200 µM ACh, −80 mV, normalized to ACh alone, 6–10 oocytes; for maximal potentiating effect: concentration-response, co-applied with ACh 200 µM, estimated; for % ± s.e. Current Vs. ACh [200 µM]: Table 2; for PAM properties / effect on ACh-induced currents, in words: 10 µM screening
T1 construct: expressed in transfected cells; host or cells: Xenopus laevis oocytes injected with in vitro transcribed capped cRNA (pSP64T derivatives)
Description: The obtained compounds were screened to determine their capacity to modulate the α7 nAChR activity (Table 2).
All human nAChR cDNAs were cloned in derivatives of the pSP64T vector containing part of the pBluescript polylinker. Capped mRNA was synthesized in vitro using SP6 RNA polymerase, the mMESSAGEmMACHINE kit from Ambion (Thermo Fisher Scientific, Madrid, Spain), and the pSP64T derivatives mentioned above. Defoliculated Xenopus laevis oocytes were injected with 5 ng of each subunit cRNA in 50 nL of sterile water. All experiments were performed within 2–3 days after cRNA injection. […] Barium, instead of calcium, was used as the extracellular divalent cation to avoid the presence of calcium-activated chloride currents. […] All experiments were performed at 22 °C. The holding potential was usually −80 mV. Current records were measured with Clampfit 10.0 (MDS Analytical Technologies, Sunnyvale, CA, USA). […] Data are expressed as mean ± SEM. All chemicals were purchased from Sigma-Aldrich (St. Louis, MO, USA).

[2] = tested on: α7 nAChRs; settings: cited from earlier work; for reported profile on ACh-evoked α7 nAChR currents in oocytes: oocytes expressing α7 nAChRs
[3] = Solubility as noted in the concentration-response experiments; type: physicochemical; settings: hindered the use of higher concentrations in the curves
Description: Figure 1 Characterization of curcumin (12) and two curcuminoids (compounds 13 and 14). (a–c) Ionic currents recorded in representative oocytes expressing human α7 nAChRs. […] All currents were recorded at a holding potential of –80 mV. […] Continuous lines represent the fit to the Hill equation. […] Thus, maximal potentiating effects were estimated as 11 ± 3-, 5.5 ± 0.3-, and 5.5 ± 1.0-fold for compounds 12, 13, and 14, respectively. […] Data were taken from 3–7 oocytes from at least 2 donors.

[4] = Chemical stability in H2O/acetonitrile 20/80 checked by HPLC; type: physicochemical; settings: period of two months
Description: To discard any possible artefacts due to decomposition of the compounds in solution, the chemical stability of the best compounds 17, 23, and 25 was checked in aqueous mixtures of H2O/acetonitrile 20/80 for a period of two months.

[5] = read-out: EC50 of potentiating effect
[6] = in the presence of compound 13 vs absence

T1 sequence (P36544 23-502): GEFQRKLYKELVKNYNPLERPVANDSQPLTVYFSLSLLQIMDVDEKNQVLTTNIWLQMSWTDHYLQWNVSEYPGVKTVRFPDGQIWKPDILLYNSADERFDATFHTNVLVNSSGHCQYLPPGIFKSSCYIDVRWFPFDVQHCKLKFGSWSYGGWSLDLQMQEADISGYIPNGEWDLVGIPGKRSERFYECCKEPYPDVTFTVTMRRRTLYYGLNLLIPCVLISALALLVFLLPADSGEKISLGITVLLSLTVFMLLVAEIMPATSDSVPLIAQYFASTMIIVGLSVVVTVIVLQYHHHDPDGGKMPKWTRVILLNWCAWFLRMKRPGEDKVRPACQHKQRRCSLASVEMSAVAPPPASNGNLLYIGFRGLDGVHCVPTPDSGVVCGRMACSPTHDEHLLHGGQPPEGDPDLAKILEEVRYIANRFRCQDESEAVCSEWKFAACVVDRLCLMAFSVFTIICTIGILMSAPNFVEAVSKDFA

Compound: CC(=O)OCC[N+](C)(C)C [ACh, acetylcholine]
nH of ACh concentration-response curve ([1]; control conditions (ACh alone)): 1.25 | Imax of ACh concentration-response curve ([1]; control conditions (ACh alone), normalized to peak current with 1 mM ACh): 1.25

Compound: O=c1cc(-c2ccc(O)cc2)oc2cc(O)cc(O)c12 [Compound 1, Apigenin]
activity at 10 µM [1]: 108 ± 4%

Compound: O=c1c(O)c(-c2ccc(O)c(O)c2)oc2cc(O)cc(O)c12 [Compound 2, Quercetin]
reported profile on ACh-evoked α7 nAChR currents in oocytes [2]: PAM profile | % ± s.e. Current vs. ACh [200 µM] [1]: 130 ± 10%

activity at 10 µM [1]: 125 ± 5.5%
Compound: O=c1cc(-c2ccc(O)c(O)c2)oc2cc(O)cc(O)c12 [Compound 3, Luteolin]

Compound: O=c1c(-c2ccc(O)cc2)coc2cc(O)cc(O)c12 [Compound 4, Genistein]
reported profile on ACh-evoked α7 nAChR currents in oocytes [2]: PAM profile | activity at 10 µM [1]: 154 ± 10%

Compound: O=c1c(O)c(-c2ccc(O)c(O)c2)oc2c(O)c(O)cc(O)c12 [Compound 5, Gossypetin]
activity at 10 µM [1]: 115 ± 2%

activity at 10 µM [1]: 155 ± 5%
Compound: O=c1c(O)c(-c2ccc(O)cc2)oc2cc(O)cc(O)c12 [Compound 6, Kaempferol]

activity at 10 µM [1]: 97 ± 6%
Compound: O=c1c(O)c(-c2cc(O)c(O)c(O)c2)oc2cc(O)cc(O)c12 [Compound 7, Myricetin]

Compound: O=C1C[C@@H](c2ccc(O)c(O)c2)Oc2cc(O)cc(O)c21 [Compound 8, Eriodictyol]
activity at 10 µM [1]: 108 ± 2.5%

activity at 10 µM [1]: 105 ± 3%
Compound: O=C1C[C@@H](c2ccc(O)cc2)Oc2cc(O)cc(O)c21 [Compound 9, Naringenin]

activity at 10 µM [1]: 107 ± 5.5%
Compound: O=C1c2c(O)cc(O)cc2OC(c2ccc(O)c(O)c2)C1O (stereo not drawn) [Compound 10, Taxifolin]

Compound: O=C(CCc1ccc(O)cc1)c1c(O)cc(O)cc1O [Compound 11, Phloretin]
activity at 10 µM [1]: 231 ± 0.5%

Compound: COc1cc(/C=C/C(=O)CC(=O)/C=C/c2ccc(O)c(OC)c2)ccc1O [Compound 12, Curcumin]
solubility, in words [3]: Limited solubility | reported type of α7 nAChR modulation [2]: Type II PAM | maximal potentiating effect [1]: 11 ± 3 fold | enhancement of ACh-induced currents ([1]; maximal effect from concentration-response, only approximated): ~1100% | activity at 10 µM [1]: 148 ± 43% | EC50 [1, 5]: 85 ± 35 µM

Compound: COc1cc(/C=C/C(O)=C/C(=O)/C=C/c2ccc(O)cc2)ccc1O [Compound 13, Demethoxycurcumin]
solubility, in words [3]: Limited solubility | EC50 [1]: 4.9 µM | % ± s.e. Current vs. ACh [200 µM] [1]: 408 ± 18% | maximal potentiating effect [1]: 5.5 ± 0.3 fold | nH of ACh concentration-response curve ([1]; in the presence of 3 µM 13): 2.36 | Imax of ACh concentration-response curve ([1]; in the presence of 3 µM 13, normalized to control peak current with 1 mM ACh): 2.70 | increase in apparent efficacy of ACh [1, 6]: 2 fold | leftward shift of ACh dose-response curve [1, 6]: 3 fold | activity at 10 µM [1]: 408%

Compound: O=C(/C=C/c1ccc(O)cc1)CC(=O)/C=C/c1ccc(O)cc1 [Compound 14, Bisdemethoxycurcumin]
solubility, in words [3]: Limited solubility | % ± s.e. Current vs. ACh [200 µM] [1]: 469 ± 42% | maximal potentiating effect [1]: 5.5 ± 1.0 fold | activity at 10 µM [1]: 469% | EC50 [1, 5]: 6.9 ± 3.1 µM

Compound: COc1ccc(/C=C/C(=O)/C=C(O)/C=C/c2ccc(OC)cc2OC)c(OC)c1 [Compound 17, (1E,4Z,6E)-1,7-Bis(2,4-dimethoxyphenyl)-5-hydroxyhepta-1,4,6-trien-3-one]
chemical stability in solution (HPLC retention times and purity) [4]: no alteration on the retention times and purity

% ± s.e. Current Vs. ACh [200 µM] [1]: 498 ± 7% | Maximal activation over the control ([1]; already observed at 1 µM, ACh 200 µM): about 3 fold | EC50 [1, 5]: 0.44 ± 0.28 µM
Compound: COc1ccc(CCC(=O)/C=C(\O)CCc2ccc(OC)cc2OC)c(OC)c1 [Compound 23, (Z)-1,7-Bis(2,4-dimethoxyphenyl)-5-hydroxyhept-4-en-3-one]
chemical stability in solution (HPLC retention times and purity) [4]: no alteration on the retention times and purity

% ± s.e. Current Vs. ACh [200 µM] [1]: 251 ± 24%
Compound: O=C(/C=C(\O)CCc1ccc(O)cc1O)CCc1ccc(O)cc1O [Compound 25, (Z)-1,7-Bis(2,4-dihydroxyphenyl)-5-hydroxyhept-4-en-3-one]
chemical stability in solution (HPLC retention times and purity) [4]: no alteration on the retention times and purity

Compound: (1E, 4Z, 6E) -1-(2,4-Dimethoxyphenyl)-7-(2-fluoro-4-methoxyphenyl)-5-hydroxyhepta-1,4,6 -trien-3-one [Compound 22]
PAM properties / effect on ACh-induced currents, in words ([1]; ACh 200 µM): increases them only slightly | % ± s.e. Current Vs. ACh [200 µM] [1]: 153 ± 17%

Compound: (1E, 4Z, 6E)-1-(2,4-Dimethoxyphenyl)-7-(2,5-dimethoxyphenyl)-5-hydroxyhepta-1,4,6-trien-3-one [Compound 21]
PAM properties / effect on ACh-induced currents, in words ([1]; ACh 200 µM): No significant PAM properties | % ± s.e. Current Vs. ACh [200 µM] [1]: 107 ± 4%

Compound: (Z)-1-(2,4-Dimethoxyphenyl)-7-(2,5-dimethoxyphenyl)-5-hydroxyhept-4-en-3-one [Compound 24]
PAM properties / effect on ACh-induced currents, in words ([1]; ACh 200 µM): No significant PAM properties | % ± s.e. Current Vs. ACh [200 µM] [1]: 53.5 ± 3.5%
